# Patent publication US20250179066A1, “ZWITTERIONIC ANTIBACTERIAL COMPOUNDS” (Hoffmann-La Roche Inc., priority 2022, published 2025)
# Structures can show the parent of a compound that is named as a salt.
# Tested on: Acinetobacter baumannii ATCC17961
# Assay: Antimicrobial susceptibility testing: 90% growth inhibitory concentration (IC90) determination
# Assay type: cell-based
# Details: 90% growth inhibitory concentration against Acinetobacter baumannii ATCC17961, Iso-Sensitest broth, OD 600 nm over 16 h; read-out: ATCC 17961 IC90
# Outline: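 Twofold serial dilutions (e.g. 10 to 0.0195 μM final) in Iso-Sensitest broth inoculated at ~5×10^5 CFU/mL, incubated at 35±2° C. OD600 read every minute for 16 h; IC90 is the concentration inhibiting 90% of growth during logarithmic phase.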
row,Structure (SMILES),IC90 [nM]
1,"Cn1c(-c2cn(-c3ccc(N)cc3F)nc2C(F)(F)F)cnc1C(=O)Nc1ccc(C(=O)N2CCN(C(=O)OCC[N+](CCCN)(CCCN)CC(=O)O)CC2)c(Cl)c1 [Example 130, 2-[4-[4-[[5-[1-(4-amino-2-fluoro-phenyl)-3-(trifluoromethyl)pyrazol-4-yl]-1-methyl-imidazole-2-carbonyl]amino]-2-chloro-benzoyl]piperazine-1-carbonyl]oxyethyl-bis(3-aminopropyl)-(carboxymethyl)ammonium; formate]",252

# Same assay, conditions: Acinetobacter baumannii, ATCC17961, 16 h, 90% growth inhibitory concentration against Acinetobacter baumannii ATCC17961, Iso-Sensitest broth, OD 600 nm over 16 h; read-out: ATCC 17961 IC90
row,Structure (SMILES),IC90 [nM]
1,"COCCNc1ccc(-n2cc(-c3cnc(C(=O)Nc4ccc(C(=O)N5CCN(C(=O)[C@H]6CC[N@+](CC(=O)O)(CC7CNC7)CC6)CC5)c(F)c4)n3C)c(C(F)(F)F)n2)c(F)c1 [Example 124, cis-2-[1-(azetidin-3-ylmethyl)-4-[4-[2-fluoro-4-[[5-[1-[2-fluoro-4-(2-methoxyethylamino)phenyl]-3-(trifluoromethyl)pyrazol-4-yl]-1-methyl-imidazole-2-carbonyl]amino]benzoyl]piperazine-1-carbonyl]piperidin-1-ium-1-yl]acetic acid; formate]",103
2,"Cn1c(-c2cn(-c3cc4[nH]c(C(=O)NO)cc4cn3)nc2C(F)(F)F)cnc1C(=O)Nc1ccc(C(=O)N2CCN(C(=O)[C@H]3CC[N@+](CC(=O)O)(CC4CNC4)CC3)CC2)c(Cl)c1 [Example 125, cis-2-[1-(azetidin-3-ylmethyl)-4-[4-[2-chloro-4-[[5-[1-[2-(hydroxycarbamoyl)-1H-pyrrolo[3,2-c]pyridin-6-yl]-3-(trifluoromethyl)pyrazol-4-yl]-1-methyl-imidazole-2-carbonyl]amino]benzoyl]piperazine-1-carbonyl]piperidin-1-ium-1-yl]acetic acid. 1:1 2,2,2-trifluoroacetate]",361
3,"Cn1c(-c2cn(-c3ccc(NCCOC(F)F)cc3F)nc2C(F)(F)F)cnc1C(=O)Nc1ccc(C(=O)N2CCN(C(=O)[C@H]3CC[N@+](CC(=O)O)(CC4CNC4)CC3)CC2)c(Cl)c1 [Example 126, cis-2-[1-(azetidin-3-ylmethyl)-4-[4-[2-chloro-4-[[5-[1-[4-[2-(difluoromethoxy)ethylamino]-2-fluoro-phenyl]-3-(trifluoromethyl)pyrazol-4-yl]-1-methyl-imidazole-2-carbonyl]amino]benzoyl]piperazine-1-carbonyl]piperidin-1-ium-1-yl]acetic acid;formate]",176
4,"Cc1cc(NC(=O)c2ncc(-c3cn(-c4ccc5[nH]c(CCO)cc5n4)nc3C(F)(F)F)n2C)ccc1C(=O)N1CCN(C(=O)[C@H]2CC[N@@+](CCCN)(CC(=O)O)CC2)CC1 [Example 127, cis-2-[1-(3-aminopropyl)-4-[4-[4-[[5-[1-[2-(2-hydroxyethyl)-1H-pyrrolo[3,2-b]pyridin-5-yl]-3-(trifluoromethyl)pyrazol-4-yl]-1-methyl-imidazole-2-carbonyl]amino]-2-methyl-benzoyl]piperazine-1-carbonyl]piperidin-1-ium-1-yl]acetic acid. 1:1 2,2,2-trifluoroacetate]",364
5,"Cn1c(-c2cn(-c3ccc4[nH]c(CCN)cc4n3)nc2C(F)(F)F)cnc1C(=O)Nc1ccc(C(=O)N2CCN(C(=O)[C@H]3CC[N@+](CC(=O)O)(CC4CNC4)CC3)CC2)c(Cl)c1 [Example 129, cis-2-[4-[4-[4-[[5-[1-[2-(2-aminoethyl)-1H-pyrrolo[3,2-b]pyridin-5-yl]-3-(trifluoromethyl)pyrazol-4-yl]-1-methyl-imidazole-2-carbonyl]amino]-2-chloro-benzoyl]piperazine-1-carbonyl]-1-(azetidin-3-ylmethyl)piperidin-1-ium-1-yl]acetic acid; chloride]",355
6,"Cn1c(-c2cn(-c3ccc(O)cc3F)nc2C(F)(F)F)cnc1C(=O)Nc1ccc(C(=O)N2CCN(C(=O)[C@H]3CC[N@@+](CCCN)(CC(=O)O)CC3)CC2)c(F)c1 [Example 131, cis-2-[1-(3-aminopropyl)-4-[4-[2-fluoro-4-[[5-[1-(2-fluoro-4-hydroxy-phenyl)-3-(trifluoromethyl)pyrazol-4-yl]-1-methyl-imidazole-2-carbonyl]amino]benzoyl]piperazine-1-carbonyl]piperidin-1-ium-1-yl]acetic acid;formate]",103
7,"Cc1cc(NC(=O)c2ncc(-c3cn(-c4ccc5[nH]ccc5n4)nc3C(F)(F)F)n2C)ccc1C(=O)N1CCN(C(=O)[C@H]2CC[N@+](CC(=O)O)(CC3CNC3)CC2)CC1 [Example 132, cis-2-[1-(azetidin-3-ylmethyl)-4-[4-[2-methyl-4-[[1-methyl-5-[1-(1H-pyrrolo[3,2-b]pyridin-5-yl)-3-(trifluoromethyl)pyrazol-4-yl]imidazole-2-carbonyl]amino]benzoyl]piperazine-1-carbonyl]piperidin-1-ium-1-yl]acetic acid. 1:1 2,2,2-trifluoroacetate]",139
8,"Cn1c(-c2cn(-c3ccc4[nH]ccc4n3)nc2C(F)(F)F)cnc1C(=O)Nc1ccc(C(=O)N2CCN(C(=O)[C@H]3CC[N@+](CC(=O)O)(CC4CNC4)CC3)CC2)c(F)c1 [Example 133, cis-2-[1-(azetidin-3-ylmethyl)-4-[4-[2-fluoro-4-[[1-methyl-5-[1-(1H-pyrrolo[3,2-b]pyridin-5-yl)-3-(trifluoromethyl)pyrazol-4-yl]imidazole-2-carbonyl]amino]benzoyl]piperazine-1-carbonyl]piperidin-1-ium-1-yl]acetic acid. 1:1 2,2,2-trifluoroacetate]",146
9,"Cn1c(-c2cn(-c3ccc4[nH]c(CO)cc4n3)nc2C(F)(F)F)cnc1C(=O)Nc1ccc(C(=O)N2CCC(C(=O)N3CC[N+](CCCN)(CC(=O)O)CC3)CC2)c(Cl)c1 [Example 134, 2-[1-(3-aminopropyl)-4-[1-[2-chloro-4-[[1-methyl-5-[1-(2-methylol-1H-pyrrolo[3,2-b]pyridin-5-yl)-3-(trifluoromethyl)pyrazol-4-yl]imidazole-2-carbonyl]amino]benzoyl]isonipecotoyl]piperazin-1-ium-1-yl]acetic acid. 1:1 2,2,2-trifluoroacetate]",327
10,"Cn1c(-c2cn(-c3ccc(N)cc3F)nc2C(F)(F)F)cnc1C(=O)Nc1ccc(C(=O)N2CCC(C(=O)N3CC[N+](CCCN)(CC(=O)O)CC3)CC2)c(Cl)c1 [Example 135, 2-[4-[1-[4-[[5-[1-(4-amino-2-fluoro-phenyl)-3-(trifluoromethyl)pyrazol-4-yl]-1-methyl-imidazole-2-carbonyl]amino]-2-chloro-benzoyl]isonipecotoyl]-1-(3-aminopropyl)piperazin-1-ium-1-yl]acetic acid. 1:1 2,2,2-trifluoroacetate]",393
11,"Cn1c(-c2cn(-c3ccc(O)cc3F)nc2C(F)(F)F)cnc1C(=O)Nc1ccc(C(=O)N2CCN(C(=O)[C@H]3CC[N@+](CC(=O)O)(CC4CNC4)CC3)CC2)c(F)c1 [Example 136, cis-2-[1-(azetidin-3-ylmethyl)-4-[4-[2-fluoro-4-[[5-[1-(2-fluoro-4-hydroxy-phenyl)-3-(trifluoromethyl)pyrazol-4-yl]-1-methyl-imidazole-2-carbonyl]amino]benzoyl]piperazine-1-carbonyl]piperidin-1-ium-1-yl]acetic acid;formate]",173
12,"Cn1c(-c2cn(-c3ccc(NC[C@H](O)CO)cc3F)nc2C(F)(F)F)cnc1C(=O)Nc1ccc(C(=O)N2CCN(C(=O)[C@H]3CC[N@+](CC(=O)O)(CC4CNC4)CC3)CC2)c(Cl)c1 [Example 137, cis-2-[1-(azetidin-3-ylmethyl)-4-[4-[2-chloro-4-[[5-[1-[4-[[(2S)-2,3-dihydroxypropyl]amino]-2-fluoro-phenyl]-3-(trifluoromethyl)pyrazol-4-yl]-1-methyl-imidazole-2-carbonyl]amino]benzoyl]piperazine-1-carbonyl]piperidin-1-ium-1-yl]acetic acid;formate]",334
13,"Cn1c(-c2cn(-c3ccc4c(ccn4C(C)(C)C(N)=O)n3)nc2C(F)(F)F)cnc1C(=O)Nc1ccc(C(=O)N2CCN(C(=O)[C@H]3CC[N@+](CC(=O)O)(CC4CNC4)CC3)CC2)c(Cl)c1 [Example 138, cis-2-[4-[4-[4-[[5-[1-[1-(2-amino-1,1-dimethyl-2-oxo-ethyl)pyrrolo[3,2-b]pyridin-5-yl]-3-(trifluoromethyl)pyrazol-4-yl]-1-methyl-imidazole-2-carbonyl]amino]-2-chloro-benzoyl]piperazine-1-carbonyl]-1-(azetidin-3-ylmethyl)piperidin-1-ium-1-yl]acetic acid;chloride]",408
14,"Cn1c(-c2cn(-c3cc4[nH]c(C(=O)N5CCOCC5)cc4cn3)nc2C(F)(F)F)cnc1C(=O)Nc1ccc(C(=O)N2CCN(C(=O)[C@H]3CC[N@+](CC(=O)O)(CC4CNC4)CC3)CC2)c(Cl)c1 [Example 139, cis-2-[1-(azetidin-3-ylmethyl)-4-[4-[2-chloro-4-[[1-methyl-5-[1-[2-(morpholine-4-carbonyl)-1H-pyrrolo[3,2-c]pyridin-6-yl]-3-(trifluoromethyl)pyrazol-4-yl]imidazole-2-carbonyl]amino]benzoyl]piperazine-1-carbonyl]piperidin-1-ium-1-yl]acetic acid. 1:1 2,2,2-trifluoroacetate]",172
15,"Cn1c(-c2cn(-c3ccc(N)cc3F)nc2C(F)(F)F)cnc1C(=O)Nc1ccc(C(=O)N2CCN(C(=O)N3CC[N+](CC(=O)O)(CC4CNC4)CC3)CC2)c(Cl)c1 [Example 140, 2-[4-[4-[4-[[5-[1-(4-amino-2-fluoro-phenyl)-3-(trifluoromethyl)pyrazol-4-yl]-1-methyl-imidazole-2-carbonyl]amino]-2-chloro-benzoyl]piperazine-1-carbonyl]-1-(azetidin-3-ylmethyl)piperazin-1-ium-1-yl]acetic acid. 1:1 2,2,2-trifluoroacetate]",334
